From US20060073516A1, “Novel screening method” (priority 2002, published 2006) come the findings set out here.

Assay [1] deals with CHO-K1 cells into which the expression vector alone was introduced. The note with it: control CHO-K1 cells, expression vector alone (no insert); FLIPR (FIG. 3). Here is the method:
(§1) The CHO-K1 cell line was cultured in HAM F-12 medium (Invitrogen) containing 10% fetal calf serum (Invitrogen), unless otherwise indicated. A day before transfection, 4.5×10^5 cells per 10 cm^2 were plated, followed by incubation in a CO2 incubator adjusted to a concentration of 5% CO2 at 37° C. for at least 15 hours. Using Lipofectamine reagent (Invitrogen), transfection was carried out by modifications of the method attached to the reagent. When a 6-well plate was used for the incubation, the following procedures were performed. First, 2 tubes each having a 1.5 ml volume were prepared and 100 μl each of Opti-MEM medium (Invitrogen) was dispensed in each tube. Next, 1 μg of the expression vector was charged in one tube and in another tube, 6 μl of Lipofectamine reagent was charged, which were mixed together. The mixture was settled for 20 minutes at room temperature. To the solution, 800 μl of Opti-MEM medium was added and the resulting solution mixture for transfection was added to the CHO-K1 cells, which had been previously washed with Opti-MEM medium. Then, the cells were incubated in a CO2 incubator for 6 hours. After the incubation, the cells were rinsed with PBS (Invitrogen), then scraped using 0.05% trypsin-EDTA solution (Invitrogen) and recovered by centrifugal operation. The cells obtained were counted and diluted to 5×10^4 cells per 200 μl of the medium. The dilution was dispensed onto a Black walled 96-well plate (Costar) in 200 μl each per well, followed by incubation overnight in a CO2 incubator. Various test samples were added to the CHO-K1 cells in which the receptor was transiently expressed by the transfection operation described above, whereby changes in the intracellular calcium ion level were determined using FLIPR (Molecular Device). In order to determine the changes in the intracellular calcium ion level on FLIPR, the cells were pre-teated by the following procedures. […] Following the pre-treatment above, changes in intracellular calcium level after addition of various test samples were measured on FLIPR.

The target in assay [2] is T1, TGR7 (Homo sapiens, UniProt Q8TDS7). The note with it: β-alanine added in 10^−4 M to 10^−5 M; CHO-K1 cells expressing human TGR7; FLIPR, Fluo-3AM (FIG. 1). As for the experimental part:
as §1

Another assay has as its target rat rCB7T084 (Rattus norvegicus, UniProt Q7TN41, R55S). The note with it: β-alanine added in 10^−4 M to 10^−5 M; CHO-K1 cells expressing rat rCB7T084; FLIPR, Fluo-3AM (FIG. 2). As for the experimental part:
as §1

Another assay deals with T2, rCB7T084 (Rattus norvegicus, UniProt Q7TN41, R55S).
T2 construct: expressed in transfected cells; host or cells: CHO cells
T2 sequence (Q7TN41 1-319 R55S): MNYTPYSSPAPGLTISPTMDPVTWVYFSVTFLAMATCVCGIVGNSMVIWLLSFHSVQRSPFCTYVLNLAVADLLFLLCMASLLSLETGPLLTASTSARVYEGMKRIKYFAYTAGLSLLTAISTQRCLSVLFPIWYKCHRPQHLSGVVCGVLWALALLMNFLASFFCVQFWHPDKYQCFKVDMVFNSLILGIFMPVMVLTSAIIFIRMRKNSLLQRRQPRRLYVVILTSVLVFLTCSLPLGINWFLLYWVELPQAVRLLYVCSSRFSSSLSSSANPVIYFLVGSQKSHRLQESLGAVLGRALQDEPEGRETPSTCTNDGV
Kind of assay: Suppression of forskolin-increased intracellular cAMP level in rCB7T084-expressed CHO cells. The class given is cell-based. The note with it: 1 μM forskolin, ligand 1.0×10^−3 M-3.0×10^−7 M, compared to mock CHO cells (FIG. 6, FIG. 7). Here is the method:
(§2) The TGR7- and rCB7T084-expressed CHO cells were washed with assay medium (HBSS (GibcoBRL) supplemented with 0.1% bovine serum albumin and 0.2 mM IBMX). Thereafter, the cells were incubated at 37° C. for 30 minutes under 5% CO2 conditions. β-Alanine (1.0×10^−3 M-3.0×10^−7 M) and L-carnosine (1.0×10^−3 M-3.0×10^−7 M) diluted with the assay medium in various concentrations were added and forskokin was then added thereto in 1 μM. The cells were incubated at 37° C. for 30 minutes under 5% CO2 conditions. The culture supernatant was discarded and the intracellular cAMP level was determined on a plate reader (ARVO multi-label counter, Wallac, Inc.), following the protocol of cAMP Screen Kit (Applied Biosystems, Inc.).
In general terms: Changes in cAMP serve as a functional read-out for many G protein-coupled receptors.

Assay [3] addresses T1, TGR7. Kind of assay: Suppression of forskolin-increased intracellular cAMP level in TGR7-expressed CHO cells. The note with it: 1 μM forskolin, ligand 1.0×10^−3 M-3.0×10^−7 M, compared to mock CHO cells (FIG. 6, FIG. 7). More on the design: expressed in transfected cells; host or cells: CHO cells. The format is cell-based. Here is the method:
as §2

T1 sequence (Q8TDS7 whole entry): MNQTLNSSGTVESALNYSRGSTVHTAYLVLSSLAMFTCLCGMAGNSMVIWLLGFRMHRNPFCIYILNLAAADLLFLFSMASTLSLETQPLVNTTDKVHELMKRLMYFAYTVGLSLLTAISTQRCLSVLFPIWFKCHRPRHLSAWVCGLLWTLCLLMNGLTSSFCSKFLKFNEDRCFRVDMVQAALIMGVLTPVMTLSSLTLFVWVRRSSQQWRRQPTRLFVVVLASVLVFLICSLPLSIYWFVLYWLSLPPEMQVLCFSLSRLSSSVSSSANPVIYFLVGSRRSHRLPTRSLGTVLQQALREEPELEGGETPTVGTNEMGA

Consider `NCCC(=O)O` [β-alanine], for which the results for the “response (increase in the intracellular calcium level)” value (in assay [1]; at TGR7 [2]; on rat rCB7T084) were “such response was not observed”, “specifically responsive” and “specifically responsive”, respectively. The “decrease of the intracellular cAMP level increased by forskolin addition” value on rCB7T084 was “dose-dependent and specific decrease”; on TGR7 [3], “dose-dependent and specific decrease”.

As to `NCCC(=O)N[C@@H](Cc1cnc[nH]1)C(=O)O` [L-carnosine], the “decrease of the intracellular cAMP level increased by forskolin addition” value was “dose-dependent and specific decrease” on rCB7T084; “dose-dependent and specific decrease” on TGR7 [3].
